Counter-ions that a name gives are not always drawn.
Key:
[1] = pH of concentrated aqueous solution of the isoelectric buffer after desalting in IET apparatus (equal to pI); assay type: physicochemical; settings: isoelectric state after IET desalting
Excerpt: The aqueous solution was desalted and the ampholytic buffer brought to isoelectric state in an IET apparatus. The pH of the concentrated aqueous solution of isoelectric BCPDEAH was 3.8, equal to its pI value. After liophylization, the solid product was characterized by ^1H- and ^13C-NMR. […] The identity and purity of the final product were further confirmed by high resolution ESI-MS. Only signals corresponding to BCPDEAH and its fragment ions are seen.

[2] = Conductivity, pH and buffering capacity of 50 mM solutions of ampholytic buffers; assay type: physicochemical; settings: 50 mM solution
Description: The conductivities, pH values and buffering capacities of 50 mM solutions of some of the ampholytic buffers of the present invention are listed in Table 1. For comparison purposes, values for histidine (HIS), a widely used low conductivity ampholytic buffer are also included.

[3] = indirect UV detection CE, bare fused silica capillary, 15 kV, T=25, UV 214 nm, BGEs of varied pH
Description: Using a 26 :m I.D. bare fused silica capillary, Lt=26.1 cm, Ld=19.7 cm at 15 kV in positive to negative polarity, T=25 EC, UV detector set at 214 nm, conventional CE was carried out in 20 mM tris(hydroxymethyl) aminomethane (Tris) and 20 mM benzylamine BGEs titrated with pTSA.
Using a 26 :m I.D. bare fused silica capillary, Lt=26.1 cm, Ld=19.7 cm at 15 kV in positive to negative polarity, T=25 EC, and the UV detector set at 214 nm, conventional CE was carried out in 20 mM acetic acid BGEs titrated with imidazole and 20 mM pyridine BGEs titrated with pTSA.

Compound	pH of the concentrated aqueous solution of isoelectric form, equal to its pI value [1]	Buffering capacity [2] [mM/pH]	Conductivity [2] [mS/m]	pH [2]	pI [3]
CC[N+](CC)(CCCC(=O)[O-])CCCC(=O)O [BCPDEAH, N,N-bis(carboxypropyl)diethyl ammonium hydroxide, inner salt]	3.8	35.7	18.4	4.15	–
CN(C)CC(CN(C)C)OS(=O)(=O)O [BDASP, 1,3-bis(N,N-dimethylamino)-2-O-sulfo-propane]	–	25.0	25.8	7.82	~8.0
CCCN(CCC)CC(CN(CCC)CCC)OS(=O)(=O)O [BDPSP, 1,3-bis(dipropylamino)-2-O-sulfo-propane]	–	–	–	–	8.7
O=S(=O)(O)OC(CN1CCOCC1)CN1CCOCC1 [DMSP, 1,3-dimorpholino-2-O-sulfo-propane]	–	14.7	7.3	5.79	5.8
O=S(=O)(O)OC(CN1CCCCC1)CN1CCCCC1 [DPSP, 1,3-dipiperidino-2-O-sulfo-propane]	–	20.8	18.1	8.35	8.9
N[C@@H](Cc1c[nH]cn1)C(=O)O [HIS, histidine, reference compound]	–	12.5	3.5	7.44	–
